Columns and labels:
[1] = tested on: HMGN1 secreted from senescent A549 cells; assay: HMGN1 secretion (ELISA) from senescent A549 cancer cells, Example 12; assay type: cell-based, human; settings: senescent untreated = 100%; 30 μM; 90 μM for LX-305, 905, 1302, 1601, 1603, 2003, 2702, 2901, 3106; 270 μM for LX-1103, 2005, 2007;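 note: A549 cells made senescent by doxorubicin exposure, with DMSO-treated cells serving as the non-senescent control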
Protocol: Cells were treated with doxorubicin or control (DMSO) and cultured.

[2] = tested on: naturally aged C57BL6J mice; assay: Skin aging (dermal thickness, COL1A1 and SDF1 mRNA, hair loss) in naturally aged mice, Example 21-10, Table 25; assay type: in vivo, mouse; settings: for Dermal Thickness (μm): mouse, in vivo
Protocol: 22-month-old female C57BL6J mice (KRIBB Laboratory Animal Resource Center) were acclimated to the experimental environment for one week, after which the aged mice were randomly assigned to experimental and control groups. Eight-week-old, non-aged mice served as controls. LX-403 was mixed in a 10% ethanol solution of PEG400 and administered orally at a concentration of 25 mg/kg daily for 21 days, or administered to the skin, joints, or eyes at a concentration of 1 μM. LX-1801 was mixed in distilled water with 4% DMSO, 30% PEG300, and 5% Tween80 and administered to the skin, joints, or eyes at a concentration of 0.4 μM daily for 21 days. LX-2001 was mixed in PBS and administered to the skin, joints, or eyes at a concentration of […] daily for 21 days. LX-2002 was mixed in distilled water with 4% DMSO, 30% PEG300, and 5% Tween80 and administered to the skin, joints, or eyes at a concentration of 2 μM daily for 21 days. […] LX-2005 was mixed in distilled water with 4% DMSO, 30% PEG300, and 5% Tween80 and administered to the skin, joints, or eyes at a concentration of 90 μM daily for 21 days. LX-2007 was mixed in distilled water with 4% DMSO, 30% PEG300, and 5% Tween80 and administered to the skin, joints, or eyes at a concentration of 90 μM daily for 21 days. […] LX-3002 was mixed in distilled water with 4% DMSO, 30% PEG300, and 5% Tween80 and administered orally at a concentration of 10 mg/kg daily for 21 days. […] LX-5411 was mixed in 5% PBS and administered orally at a concentration of 10 mg/kg daily for 21 days or administered to the skin, joints, or eyes at a concentration of 3 μM. LX-5701 was mixed in PBS and administered orally at a concentration of 360 mg/kg daily for 21 days. LX-6807 was mixed in saline and administered intraperitoneally at a concentration of 1 mg/kg daily for 21 days. LX-2101 or LX-2102 was mixed in PBS solution with 5% DMSO and administered intraperitoneally at a concentration of 20 mg/kg or 10 mg/kg, respectively, daily for 21 days. The control group received only the solution in the same volume. After the end of drug administration, the methods described in each example below were performed.
Frozen sections of skin tissue were stained with Hematoxylin/Eosin (H/E), and the dermal thickness was observed under an optical microscope. Furthermore, the mRNA levels of collagen (COL1A1), a skin component, and SDF1, which suppresses age-related pigmentation, were measured using qRT-PCR as described in Example 7-2 of WO2023-085787 A1. […] Furthermore, biweekly examinations were performed to assess the onset of hair loss due to aging.

[3] = tested on: naturally aged C57BL6J mice; assay type: in vivo, mouse; settings: for Wound size (mm): after 7 days, 6 mm punch dorsal skin wounds, naturally aged mice, untreated aged 3.2 (±0.4)
[4] = tested on: doxorubicin-induced aged C57BL6J mice; assay: Hair loss area in doxorubicin-aged mice, Example 22-11, Table 40; assay type: in vivo, mouse; settings: doxorubicin-induced aged mice; untreated 100 (±15.4)
Protocol: Eight-week-old male C57BL6J mice (KRIBB Laboratory Animal Resource Center) were acclimated to the experimental environment for one week. Afterwards, the anticancer agent doxorubicin was administered intraperitoneally at a concentration of 10 mg/kg, inducing aging for more than 10 days. The aging-induced mice were randomly assigned to experimental and control groups. LX-403 was mixed with a 10% ethanol solution of PEG400 and administered orally at a concentration of 25 mg/kg or intradermally at a concentration of 1 μM for 21 days. LX-1801 was mixed in distilled water with 4% DMSO, 30% PEG300, and 5% Tween80 and administered intradermally at a concentration of 0.4 μM daily for 21 days. LX-2001 was mixed in PBS and administered intradermally at a concentration of 2 μM daily for 21 days. LX-2002 was mixed in distilled water with 4% DMSO, 30% PEG300, and 5% Tween80 and administered intradermally at a concentration of 2 μM daily for 21 days. […] LX-2005 was mixed in distilled water with 4% DMSO, 30% PEG300, and 5% Tween80 and administered intradermally at a concentration of 90 μM daily for 21 days. LX-2007 was mixed in distilled water with 4% DMSO, 30% PEG300, and 5% Tween80 and administered intradermally at a concentration of 90 μM daily for 21 days. […] LX-3002 was mixed in distilled water with 4% DMSO, 30% PEG300, and 5% Tween80 and administered orally at a concentration of 10 mg/kg daily for 21 days. […] LX-5411 was mixed in 5% phosphate-buffered saline (PBS) and administered orally at a concentration of 10 mg/kg daily for 21 days or intradermally at a concentration of 3 μM. LX-5701 was mixed in PBS and administered orally at a concentration of 360 mg/kg daily for 21 days. LX-6807 was mixed in saline and administered intraperitoneally at a concentration of 1 mg/kg daily for 21 days. The control group received only the solution in the same volume. After the end of drug administration, the methods described in each example below were performed.
Alopecia is one of the most troubling side effects of chemotherapy, for which there is currently no treatment. Hair loss in mice induced to age by the anticancer drug was quantified using imaging software such as ImageJ (NIH) from digital photographs taken using a fixed camera position and magnification.

[5] = tested on: naturally aged C57BL6J mice; assay: Geriatric depression and anxiety in aged mice, Example 21-8; assay type: in vivo, mouse; settings: for amount of SASP, p16, SA-β-gal, lipofuscin / symptoms of geriatric depression and anxiety: aged mice
From the text: The amount of senescent-associated secretory factor (SASP) in serum and tissues collected from mice of Examples 21-5 and 21-6 was reduced by treatment with LX-5701, LX-2101, or LX-2102. It was confirmed that removing senescent cells, which increase with aging in mice, and effectively reducing the amount of senescent-associated secretory factor (SASP) can improve symptoms of geriatric depression and anxiety.

[6] = naturally aged mice, untreated aged = 100
[7] = skin, naturally aged mice, untreated aged = 1

Compound	HMGN1 [1] [%]	Dermal Thickness (μm) [2]	Relative area of hair loss (%) [2, 6]	Col1a1 mRNA (Fold) [2, 7]	SDF1 mRNA (fold) [2, 7]	Wound size (mm) [3]	Relative area of hair loss [4]	amount of SASP, p16, SA-β-gal, lipofuscin [5]	symptoms of geriatric depression and anxiety [5]	amount of SASP in serum and tissues ([5]; mice of Examples 21-5 and 21-6)	Col1a1 mRNA (Fold) ([2]; topical)	Relative area of hair loss (%) ([2]; topical)	SDF1 mRNA (fold) ([2]; topical)	wound/damage healing improvement ([3]; mouse, in vivo)
O=C(C(C[N+](=O)[O-])=NO)N1CCN(C(c2ccc(Cl)cc2)c2ccc(Cl)cc2)CC1 [LX-403]	320	232 (±16.2) μm	69 (±2.5) %	2.4 (±0.2) Fold	1.8 (±0.1) fold	1.9 (±0.2) mm	76 (±5.5) %							
COC(=O)c1ccc([C@H]2c3[nH]c4ccccc4c3C[C@H](C(=O)OC)N2C(=O)CCl)cc1 [LX-405]	310							reduced	improved					
S=C(N/N=C1\CCCc2cccnc21)N1CCN(c2ccccn2)CC1 [LX-801]	329													
C[C@@H]1CC[C@@]23C[C@H](O)C(=O)[C@@]2(O)[C@]1(C)[C@H](OC(=O)CCl)C[C@@H](C1=CCn2c(=O)n(-c4ccccc4)c(=O)n2C1)[C@@H]3C [LX-1801, (2S,3aS,4S,5R,7R,8S,8aS,11R)-7-(1,3-Dioxo-2-phenyl-2,3,5,8-tetrahydro-1H-[1,2,4]triazolo[1,2-a]pyridazin-6-yl)-2,3a-dihydroxy-4,8,11-trimethyl-3-oxooctahydro-1H-4,8a-propanoazulen-5-yl 2-Chloroacetate]	295	222 (±37.4) μm	82 (±6.6) %	2.0 (±0.2) Fold	2.1 (±0.2) fold	2.5 (±0.6) mm	78 (±5.4) %							
C[C@H]1[C@H](C)CC[C@]2(C(=O)O)CC[C@]3(C)C(=CC[C@@H]4[C@@]5(C)CC[C@H](O)C(C)(C)[C@@H]5CC[C@]43C)[C@H]12 [LX-2001, Ursolic acid]	328	241 (±46.6) μm	73 (±8.3) %	2.2 (±0.4) Fold	1.6 (±0.2) fold	2.5 (±0.5) mm	80 (±6.9) %							
C[C@H]1[C@H](C)CC[C@]2(C(=O)O)CC[C@]3(C)C(=CC[C@@H]4[C@@]5(C)C[C@@H](O)[C@H](O)C(C)(C)[C@@H]5CC[C@]43C)[C@H]12 [LX-2002, Corosolic acid]	314	253 (±40.1) μm	75 (±8.3) %	1.9 (±0.3) Fold	1.4 (±0.1) fold	2.7 (±0.4) mm	83 (±10.4) %							
COC(=O)[C@]12CCC(C)(C)C[C@H]1[C@H]1C(=O)C=C3[C@@]4(C)C=C(C#N)C(=O)C(C)(C)[C@@H]4CC[C@@]3(C)[C@]1(C)CC2 [LX-2102, Bardoxolone methyl]	233	234 (±9.6) μm								reduced	2.0 (±0.2) Fold	89 (±7.5) %	1.3 (±0.1) fold	damage treatment and recovery
CCCC\C=C/C=C/C=C\CCCCCCCC(=O)O [LX-2707, Punicic acid]		237 (±19.4) μm				2.7 (±0.3) mm		reduced	improved					
COC(=O)[C@H]1Cc2c([nH]c3ccccc23)[C@H](c2ccc(S(C)(=O)=O)cc2)N1C(=O)CCl [LX-5401, methyl (1S,3R)-2-(2-chloroacetyl)-1-(4-(methylsulfonyl)phenyl)-2,3,4,9-tetrahydro-1H-pyrido[3,4-b]indole-3-carboxylate]		222 (±26.3) μm				2.3 (±0.3) mm		reduced	improved					
Tocofersolan [LX-3001]	261	223 (±15.7) μm				2.4 (±0.1) mm		reduced	improved					

From patent publication US20260306460A1, “COMPOSITION FOR REMOVING AND INHIBITING SENESCENT CELLS, AND USES THEREOF” (LIFECEUTIX CO., LTD., priority 2023, published 2026)
